Test results taken from patent publication US20110217290A1, “TREATMENT AND/OR PREVENTION OF PEANUT INDUCED ANAPHYLAXIS” (priority 2009, published 2011).

Assays:
peanut-sensitized mice [1] = assay: Mathematical model grading severity of the anaphylactic response (AU39° C., AU35° C., events under 35° C.); format: in vivo, C57BL/6 mice
Procedure: In an effort to more comprehensively grade the anaphylactic response, three measures of severitywere utilized: global, moderate and life-threatening severity. To facilitate the assessment of severity, a mathematical model that describes the overall behavior of the anaphylactic response for each experimental group was developed. Using mean experimental data for untreated mice, an equation was derived that represents the pattern in core temperature up to 120 minutes following challenge. The same equation was then fit to the other experimental group (mice treated with PAF-R antagonist) to derive a numerical coefficient that accurately depicts the respective response. (FIG. 3 E). These equations were subsequently used to generate modeled data. Actual and modeled data were validated through linear regression, yielding R^2 values of greater than 0.99 for both untreated and treated groups (FIG. 3 F). Thus, the response for each experimental group can be expressed with a mathematical representation that can be used to assess the overall degree of the anaphylactic response. Global severity was defined as the area of the response under 39° C. (AU39° C.), while life-threatening severity was depicted as the area of the response under 35° C. (AU35° C.; FIG. 3 F). Moderate severity was deemed as the difference between global and life-threatening severity (AU39° C.-AU35° C.; FIG. 3 F). Given that these areas (i.e. AU39° C. and AU35° C.) were calculated using mean temperatures at each time point, they describe the overall trend of the response. […] In other words, the AU35° C. is not representative of those mice that experienced life-threatening anaphylaxis exclusively but rather encompasses the response of the entire population. Therefore, the concept of life-threatening severity was modified to consider only the number of mice whose temperature fell below 35° C. at any time point (expressed as ‘events under 35° C.’). In addition, the duration of life-threatening conditions was determined by calculating the time at which each response was below 35° C. (FIG. 3 F).
The potential adjuvant effect of antihistamines in the treatment of PIA was assessed. Peanut-sensitized mice were treated with a PAF-R antagonist along with H1 and H2 receptor antagonists and monitored them for 120 min following challenge. FIG. 4 illustrates that concomitant treatment with PAF-R antagonist and anti-histamines prevents life-threatening and prolonged peanut-induced anaphylactic reactions. […] One week after the last sensitization, separate groups of mice were treated as follows: (A) appropriate drug vehicle (B) PAF-R antagonist [50 mg/Kg], ABT-491] orally 1 h prior to CPE challenge. (C) histamine receptor antagonists mepyramine [3 mg/kg] and cimetadine [10 mg/Kg] (for H1 receptor and H2 receptor, respectively) i.v. 30 min prior to CPE challenge (D) The last group of mice was administered the treatments described in B and C concurrently. Pooled data from two independent experiments are shown (n=6/experiment). *, P<0.05 relative to time 0. ns, not significant. […] (E) The accuracy of the model was quantified using linear regression. Using the equation from the model, global severity was defined as the area between the response and 39 (area under 39° C. (AU39° C.)) while life-threatening severity was defined as the area of the response under 35° C. (AU35° C.). Since these areas were calculated using mean temperatures at each time point, they describe the overall trend of the response. […]

peanut-sensitized mice [2] = tested on: peanut-sensitized mice
[3] = tested on: cysteinyl leukotrienes (CysLTC); assay: Plasma cysteinyl leukotrienes after peanut challenge (enzyme immunoassay); format: in vivo, C57BL/6 mice
Procedure: Blood from control and sensitized mice was collected in K2-EDTA containing tubes at the indicated time points following i.p challenge with CPE and plasma was analyzed for (E) histamine and (F) CysLTC levels. Histamine and leukotriene levels were determined in plasma at different time points following challenge using enzyme immunoassay kits (Beckman Coulter Canada, Inc, Mississauga, and Cedarlane Laboratories Ltd, Hornby, Canada, respectively) according to the manufacture's specifications. Plasma was obtained using K2-EDTA containing tubes (BD Biosciences, Mississauga, ON, Canada). Graphs show mean values±SEM from three to five independent experiments; n=8-12 mice per group. * P<0.05 relative to control. The kinetics of mediator production is distinct. […] These findings indicate that oral sensitization with peanut results in a significant increase in the number of peritoneal mast cells and FcεRI surface expression likely contributing to the massive release of vasoactive mediators following challenge with peanut.
(for H1 receptor and H2 receptor, respectively) i.v. 30 minutes prior to CPE challenge. […] Histamine (C) and (G) and leukotriene (D) and (H) levels from each of the experimental groups above were analyzed in plasma 40 min following CPE challenge. […]

albumin in the PL fluid = assay: Vascular leakage: albumin content in PL fluid after peanut challenge; format: in vivo, C57BL/6 mice; details: PAF-R antagonist; following peanut challenge
Source text: During the course of a systemic anaphylactic reaction vasodilatation and hypotension are often associated with excessive vascular permeability and fluid extravasations.

SMILES	decrease in global severity (AU39° C.) (peanut-sensitized mice [1]; PAF-R antagonist 50 mg/Kg orally vs. untreated, up to 120 min following challenge, FIG. 3 F)	less time under life-threatening conditions (below 35° C.) compared to untreated mice (peanut-sensitized mice [1]; PAF-R antagonist 50 mg/Kg orally, FIG. 3 F)	number of 'events under 35° C.' (peanut-sensitized mice [1]; PAF-R antagonist 50 mg/Kg orally, untreated 133, FIG. 3 F)	number of 'events under 35° C.' (peanut-sensitized mice [1]; treatments as, 120 min, untreated 75, FIG. 4 E)	effect on moderate severity (AU39° C.-AU35° C.) (peanut-sensitized mice [1]; treatments as, up to 120 min, FIG. 4 E)	development of seizures (convulsions) (peanut-sensitized mice [2]; ABT-491 50 mg/Kg orally 1 h prior to challenge, 15% of untreated mice developed convulsions)	recovery from the anaphylactic reaction (peanut-sensitized mice [2]; ABT-491 50 mg/Kg orally 1 h prior to challenge, monitored 120 min, FIGS. 3 C and D)	treated mice that developed either no or mild anaphylactic reactions (peanut-sensitized mice [2]; ABT-491 50 mg/Kg orally 1 h prior to challenge, no: score 0, 37.5-40° C., mild: score ≦2, 34.5-37.5° C.) [%]	mice that reached recovery temperature (37° C.) within 120 min following challenge (peanut-sensitized mice [2]; ABT-491 50 mg/Kg orally 1 h prior to challenge, untreated 43%, FIG. 3 C) [%]	mice that dropped their core temperature by more than 4° C. (peanut-sensitized mice [2]; ABT-491 50 mg/Kg orally 1 h prior to challenge, untreated 87%) [%]	mice that died within 48 h following challenge (peanut-sensitized mice [2]; ABT-491 50 mg/Kg orally 1 h prior to challenge, untreated approximately 20%)	mice that experienced severe hypothermia 120 min following challenge (peanut-sensitized mice [2]; ABT-491 50 mg/Kg orally 1 h prior to challenge, untreated approximately 30%) [%]	levels of Cysts in plasma following challenge with peanut ([3]; PAF-R antagonist treated, untreated 570.2±237.3, mean±SEM) [pg/mL]	decrease in the content of albumin in the PL fluid of treated mice compared to untreated mice (vascular leakage) (albumin in the PL fluid) [%]	impact on the extent and/or kinetics of peanut-induced anaphylactic reactions (peanut-sensitized mice [2]; Zileuton 50 mg/Kg oral gavage twice, 12 h and 1 h prior to i.p. CPE challenge, 40 min, FIGS. 2 A and B)	leukotrienes in plasma from treated mice ([3]; Zileuton 50 mg/Kg oral, 12 h and 1 h prior to challenge, plasma 40 min following CPE challenge, FIG. 2 D)
C#Cc1cccc2c1c(C(=O)c1ccc(Cn3c(C)nc4cnccc43)c(F)c1)cn2C(=O)N(C)C [ABT-491]	approximately 50%	approximately 75%	41	16	partial effect	no seizures were observed	significantly accelerated	~50	83	48	none	9	187.3 ± 96.9	57	–	–
CC(c1cc2ccccc2s1)N(O)C(N)=O (stereo not shown) [Zileuton]	–	–	–	–	–	–	–	–	–	–	–	–	–	–	did not have an impact	nearly undetected
